Data taken from PMC9723620 (2022).

How the values were obtained:
[1] = tested on: A-site RNA (RNA, rRNA) CGGCGUCACACCUCGGGGUGAAGUCGCCG; assay: fluorescent intercalator displacement (FID); conditions: 100 mM KCl, 4 mM MgCl2, 20 mM Tris-HCl pH 7.0, TO-PRO displaced, RNA 0.5 μM
[2] = tested on: NEAT1_2 TH (RNA, triplex) AGGUGUUUCUUUUACUGAGUGCAGCCC/UGGCCGCACUCAGGUUUUGCUUUUCACCUUCCCAUCUGUGAAAGAGUGAGCAGGAAAAAGCAAAA; assay: fluorescent intercalator displacement (FID); conditions: 100 mM KCl, 4 mM MgCl2, 20 mM Tris-HCl pH 7.0, TO-PRO displaced, RNA 0.5 μM
[3] = tested on: NEAT1_2 TH (RNA, triplex) AGGUGUUUCUUUUACUGAGUGCAGCCC/UGGCCGCACUCAGGUUUUGCUUUUCACCUUCCCAUCUGUGAAAGAGUGAGCAGGAAAAAGCAAAA; assay: fluorescent intercalator displacement (FID) screen; conditions: 100 mM KCl, 4 mM MgCl2, 20 mM Tris-HCl pH 7.0, 2% DMSO, TO-PRO displaced, RNA 0.25 μM, hit at 10 μM
[4] = tested on: fragment 1 (f1), biotinylated (RNA, single strand) AGGUGUUUCUUUUACUGAGUGCAGCCC; assay: grating-coupled interferometry (waveRAPID); conditions: 150 mM NaCl, 4 mM MgCl2; 10 mM HEPES pH 7.4, 0.005% Tween-20, 1% DMSO, 25°C; tested at 10 μM
[5] = tested on: fragment 2 (f2), biotinylated (RNA, other) UGGCCGCACUCAGGUUUUGCUUUUCACCUUCCCAUCUGUGAAAGAGUGAGCAGGAAAAAGCAAAA; assay: grating-coupled interferometry (waveRAPID); conditions: 150 mM NaCl, 4 mM MgCl2; 10 mM HEPES pH 7.4, 0.005% Tween-20, 1% DMSO, 25°C; tested at 10 μM
[6] = tested on: NEAT1_2 TH (5' biotin-TEG, immobilized) (RNA, triplex) AGGUGUUUCUUUUACUGAGUGCAGCCC/UGGCCGCACUCAGGUUUUGCUUUUCACCUUCCCAUCUGUGAAAGAGUGAGCAGGAAAAAGCAAAA; assay: grating-coupled interferometry (waveRAPID); conditions: 150 mM NaCl, 4 mM MgCl2; 10 mM HEPES pH 7.4, 0.005% Tween-20, 1% DMSO, 25°C; tested at 10 μM
[7] = tested on: NEAT1_2 TH (RNA, triplex) AGGUGUUUCUUUUACUGAGUGCAGCCC/UGGCCGCACUCAGGUUUUGCUUUUCACCUUCCCAUCUGUGAAAGAGUGAGCAGGAAAAAGCAAAA; assay: fluorescence increase on binding; conditions: 100 mM KCl, 4 mM MgCl2; 20 mM Tris-HCl pH 7.0; RNA 0.5 μM, equimolar dye; 220.7-fold fluorescence increase
[8] = tested on: A-site RNA (RNA, rRNA) CGGCGUCACACCUCGGGGUGAAGUCGCCG; assay: fluorescence increase on binding; conditions: 100 mM KCl, 4 mM MgCl2; 20 mM Tris-HCl pH 7.0; RNA 0.5 μM, equimolar dye; 116.3-fold fluorescence increase

CNc1ncc(CN2CCCC(c3nc(-c4cccs4)cc(=O)[nH]3)C2)cn1 (centres unmarked)
binding ([1]; two concentrations): no
binding ([2]; two concentrations): no

Cc1cc(O)c2c(c1)C(=O)c1cc(O)cc(O)c1C2=O
binding [3]: yes
binding [4]: no
binding [5]: no

O=C(N[C@H](CO)[C@H](O)c1ccc([N+](=O)[O-])cc1)C(Cl)Cl
binding ([1]; no effect at 50 μM): no
binding [6]: no
binding ([2]; no effect at 50 μM): no

CC1(C)CC(Oc2ccc(-c3ccc(-c4cn[nH]c4)cc3O)nn2)CC(C)(C)N1
binding ([1]; at higher concentration): weak
binding ([2]; at higher concentration): weak

NC[C@@H]1O[C@H](O[C@H]2[C@@H](O)[C@H](O[C@@H]3[C@@H](O)[C@H](N)C[C@H](N)[C@H]3O[C@H]3O[C@H](CO)[C@@H](O)[C@H](O)[C@H]3N)O[C@@H]2CO)[C@H](N)[C@@H](O)[C@@H]1O
binding ([1]; fluorescence to 0.08 at 50 and 500 μM): yes
binding ([2]; fluorescence 0.61 at 50, 0.34 at 500 μM): yes

O=c1c(O)c(-c2cc(O)c(O)c(O)c2)oc2cc(O)cc(O)c12
binding [3]: yes

C[n+]1c(C=C2C=CN(CCC[N+](C)(C)C)c3ccccc32)sc2ccccc21
binding [7]: yes
binding [8]: yes

O=C1Nc2ccc(I)cc2/C1=C/c1cc(Br)c(O)c(Br)c1
binding [3]: yes

O=C(O)C1=CC(=C(c2ccc(O)c(C(=O)O)c2)c2ccc(O)c(C(=O)O)c2)C=CC1=O
binding [3]: yes

CC(=O)c1c(O)c(C)c(O)c(Cc2c(O)c3c(c(C(=O)/C=C/c4ccccc4)c2O)OC(C)(C)C=C3)c1O
binding ([3]; not confirmed by GCI): yes
binding [6]: no

CC(=O)NC[C@H]1CN(c2ccc(N3CCOCC3)c(F)c2)C(=O)O1
binding ([1]; no effect at 50 μM): no

COc1ccc(Br)cc1S(=O)(=O)NC(=O)/C=C/c1ccccc1Cc1ccc2ccccc2c1
binding [3]: yes

CN[C@@H]1[C@@H](O)[C@@H](O[C@@H]2[C@@H](O)[C@H](O[C@H]3O[C@H]([C@@H](C)O)[C@@H](O)[C@H](O)[C@H]3N)[C@@H](N)C[C@H]2N)OC[C@]1(C)O
binding ([1]; both concentrations): yes
binding ([2]; fluorescence to 0.72, higher concentration only): weak

NCCOc1cc(C(=O)Nc2cc(OCCN)c3ccccc3n2)nc(C(=O)Nc2cc(OCCN)c3ccccc3n2)c1
binding [3]: yes

O=C1c2c(O)ccc(O)c2C(=O)c2c(NCCNCCO)ccc(NCCNCCO)c21
binding [3]: yes

O=c1c(O)c(-c2ccc(O)c(O)c2)oc2cc(O)cc(O)c12
binding [3]: yes
